The target in the assay is T1, YFP-AtCESA6 (Arabidopsis thaliana, UniProt Q94JQ6).
T1 construct: expressed in transfected cells; host or cells: transgenic Arabidopsis thaliana YFP-AtCESA6 seedlings (total protein extract for DARTS; root epidermal cells for imaging)
T1 sequence (Q94JQ6 1-1084): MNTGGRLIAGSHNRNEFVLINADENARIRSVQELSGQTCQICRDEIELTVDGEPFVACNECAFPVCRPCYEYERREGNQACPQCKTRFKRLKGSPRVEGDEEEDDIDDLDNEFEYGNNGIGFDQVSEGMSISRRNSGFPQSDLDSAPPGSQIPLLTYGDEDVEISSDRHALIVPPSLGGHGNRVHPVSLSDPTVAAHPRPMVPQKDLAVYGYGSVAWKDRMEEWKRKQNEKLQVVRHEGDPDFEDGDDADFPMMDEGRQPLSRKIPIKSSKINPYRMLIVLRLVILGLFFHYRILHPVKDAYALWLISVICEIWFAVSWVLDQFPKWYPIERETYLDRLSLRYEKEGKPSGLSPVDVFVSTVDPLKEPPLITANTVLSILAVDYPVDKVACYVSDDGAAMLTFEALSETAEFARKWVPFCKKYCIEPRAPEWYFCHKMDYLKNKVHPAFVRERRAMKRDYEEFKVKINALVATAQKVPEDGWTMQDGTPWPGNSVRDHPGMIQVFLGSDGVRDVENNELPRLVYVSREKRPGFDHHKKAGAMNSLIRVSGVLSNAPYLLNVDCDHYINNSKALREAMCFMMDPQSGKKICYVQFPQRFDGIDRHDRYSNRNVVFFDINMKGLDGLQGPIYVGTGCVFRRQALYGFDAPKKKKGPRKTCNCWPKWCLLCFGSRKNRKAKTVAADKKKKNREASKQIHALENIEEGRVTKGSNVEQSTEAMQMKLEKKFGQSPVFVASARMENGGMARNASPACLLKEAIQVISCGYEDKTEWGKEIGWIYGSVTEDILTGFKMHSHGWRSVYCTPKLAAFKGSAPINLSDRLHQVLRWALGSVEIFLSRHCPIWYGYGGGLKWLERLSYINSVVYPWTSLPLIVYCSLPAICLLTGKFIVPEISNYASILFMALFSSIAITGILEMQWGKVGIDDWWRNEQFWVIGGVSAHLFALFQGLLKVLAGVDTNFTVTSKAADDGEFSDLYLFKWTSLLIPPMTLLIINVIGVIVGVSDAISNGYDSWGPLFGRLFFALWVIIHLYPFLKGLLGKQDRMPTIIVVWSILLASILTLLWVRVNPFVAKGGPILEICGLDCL
T1 sequence (O48946 1-1081 partner): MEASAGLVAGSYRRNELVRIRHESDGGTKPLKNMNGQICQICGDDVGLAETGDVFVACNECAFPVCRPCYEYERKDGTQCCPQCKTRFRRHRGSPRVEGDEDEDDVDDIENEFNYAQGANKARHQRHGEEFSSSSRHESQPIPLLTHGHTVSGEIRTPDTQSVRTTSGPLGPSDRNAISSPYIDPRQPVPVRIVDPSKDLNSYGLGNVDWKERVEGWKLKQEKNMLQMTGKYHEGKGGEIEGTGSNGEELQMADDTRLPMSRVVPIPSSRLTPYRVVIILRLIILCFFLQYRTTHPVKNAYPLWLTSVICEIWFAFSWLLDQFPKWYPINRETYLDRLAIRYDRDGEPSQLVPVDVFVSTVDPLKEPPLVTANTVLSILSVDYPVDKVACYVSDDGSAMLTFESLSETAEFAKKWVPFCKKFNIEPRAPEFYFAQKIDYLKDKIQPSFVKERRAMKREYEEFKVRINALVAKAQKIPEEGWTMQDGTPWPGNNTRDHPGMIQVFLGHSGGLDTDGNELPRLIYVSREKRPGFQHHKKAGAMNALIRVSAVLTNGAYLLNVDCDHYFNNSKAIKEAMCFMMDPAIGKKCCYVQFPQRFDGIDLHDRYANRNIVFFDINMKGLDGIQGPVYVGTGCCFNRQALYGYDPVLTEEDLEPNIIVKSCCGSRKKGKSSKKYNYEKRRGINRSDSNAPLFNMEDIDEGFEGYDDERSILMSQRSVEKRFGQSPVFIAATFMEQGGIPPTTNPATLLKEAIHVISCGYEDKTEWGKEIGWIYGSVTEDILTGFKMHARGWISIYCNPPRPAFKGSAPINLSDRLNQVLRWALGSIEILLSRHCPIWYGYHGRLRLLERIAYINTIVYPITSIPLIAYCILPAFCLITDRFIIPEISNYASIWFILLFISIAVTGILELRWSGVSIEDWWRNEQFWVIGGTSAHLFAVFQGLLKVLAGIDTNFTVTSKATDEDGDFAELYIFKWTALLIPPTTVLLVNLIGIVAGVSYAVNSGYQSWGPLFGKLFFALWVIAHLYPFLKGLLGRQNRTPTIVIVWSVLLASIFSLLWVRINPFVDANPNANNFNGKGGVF
T1 sequence (Q941L0 1-1065 partner): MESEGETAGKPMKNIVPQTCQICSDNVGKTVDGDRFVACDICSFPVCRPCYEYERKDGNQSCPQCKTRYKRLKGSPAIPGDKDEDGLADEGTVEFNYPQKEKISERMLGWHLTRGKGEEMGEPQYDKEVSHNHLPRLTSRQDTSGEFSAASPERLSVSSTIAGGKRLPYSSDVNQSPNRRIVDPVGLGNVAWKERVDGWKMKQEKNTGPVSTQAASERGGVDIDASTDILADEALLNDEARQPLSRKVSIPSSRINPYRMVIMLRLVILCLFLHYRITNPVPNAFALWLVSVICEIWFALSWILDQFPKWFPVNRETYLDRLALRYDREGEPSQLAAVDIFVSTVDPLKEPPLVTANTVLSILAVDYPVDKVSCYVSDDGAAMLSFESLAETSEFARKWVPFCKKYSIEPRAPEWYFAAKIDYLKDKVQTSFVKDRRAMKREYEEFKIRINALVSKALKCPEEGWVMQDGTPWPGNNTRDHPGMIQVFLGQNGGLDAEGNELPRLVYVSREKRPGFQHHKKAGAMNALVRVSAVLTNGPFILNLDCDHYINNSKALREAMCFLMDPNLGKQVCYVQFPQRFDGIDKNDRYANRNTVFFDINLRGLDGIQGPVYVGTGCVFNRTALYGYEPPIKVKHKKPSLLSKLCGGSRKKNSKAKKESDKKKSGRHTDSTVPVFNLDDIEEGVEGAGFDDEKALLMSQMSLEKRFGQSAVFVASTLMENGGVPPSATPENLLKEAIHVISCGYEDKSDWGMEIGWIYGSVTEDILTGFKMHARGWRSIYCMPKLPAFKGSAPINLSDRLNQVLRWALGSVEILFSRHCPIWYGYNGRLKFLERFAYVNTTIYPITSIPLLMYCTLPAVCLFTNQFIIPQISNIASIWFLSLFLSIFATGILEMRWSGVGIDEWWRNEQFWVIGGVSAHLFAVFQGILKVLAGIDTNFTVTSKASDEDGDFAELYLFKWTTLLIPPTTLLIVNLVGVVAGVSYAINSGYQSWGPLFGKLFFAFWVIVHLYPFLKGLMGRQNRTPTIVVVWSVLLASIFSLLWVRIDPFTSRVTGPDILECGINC
In words: DARTS assay. Type of assay: binding. The conditions noted are these: total protein from YFP-AtCESA6 seedlings, vs DMSO. The procedure: To further validate that ES20-1 targets AtCESA6, we looked for a direct interaction between ES20-1 and AtCESA6. We performed a DARTS (Drug Affinity Responsive Target Stability) assay to test the interaction of ES20-1 with endogenous AtCESA6. We incubated total protein from YFP-AtCESA6 seedlings with either DMSO (as a control) or ES20-1 and digested the mixtures with protease. […] We also purified the central cytosolic domain of AtCESA6 (CESA6c) from E. coli (FIG. 3J) and performed a Microscale thermophoresis (MST) assay to test its interaction with ES20-1. […] We purified AtCESA6 central cytoplasmic domain carrying missense mutation P595S (CESA6c^P595S) and tested its interaction with ES20 and ES20-1 (3O).
To test for an interaction between AtCESA6 and ES20-1 using a DARTS assay, 7-day-old YFP-AtCESA6 light-grown seedlings were harvested and ground to a powder in liquid nitrogen. The ground tissue was homogenized in lysis buffer (50 mM Tris-HCl, pH 7.5, 150 mM NaCl, 0.5% Triton X-100, 2 mM DTT, one tablet/50 mL EDTA free Pierce protease inhibitor [Thermo Fisher]) at 2:1 ratio (2 mL buffer: 1 g tissue). […] The X-ray films were scanned, and the signal intensity of each protein band was quantified after background subtraction using Image J. The relative intensities were quantified by dividing the values in ES20-1-treated samples by the values in DMSO-treated samples.

As to `Cc1ccccc1C(=O)NNC(=S)NC(=O)c1ccccc1` [ES20-1], the “interaction with endogenous AtCESA6 (protection from protease)” value was “interacts with endogenous AtCESA6 and protects it from degradation”.

Source of the values: US11938121B2, “Treatment of infections and biofilm formation using a cellulose synthase inhibitor” (Purdue Research Foundation, priority 2020, dated 2024).
